“Also recorded” adds a separate entry of the source.
Columns and labels:
[1] = biological target: ΔF508-CFTR (Homo sapiens, UniProt P13569, DEL508-508); design: primary cultures of human bronchial epithelial cells isolated from subjects with CF; host or cells: primary human bronchial epithelial cells (Van Goor 2011); CF patients in a 28-day study (Clancy 2012); details: bronchial epithelial cells from CF subjects; cited from earlier work
[2] = biological target: T1, mutant CFTR (Homo sapiens, UniProt P13569, E92K); assay: Ussing chamber forskolin-stimulated chloride transport in Fisher Rat Thyroid cells expressing CFTR mutants; format: cell-based; details: Corr4a 15 μM
T1 construct: expressed in transfected cells
T1 sequence (P13569 whole entry E92K): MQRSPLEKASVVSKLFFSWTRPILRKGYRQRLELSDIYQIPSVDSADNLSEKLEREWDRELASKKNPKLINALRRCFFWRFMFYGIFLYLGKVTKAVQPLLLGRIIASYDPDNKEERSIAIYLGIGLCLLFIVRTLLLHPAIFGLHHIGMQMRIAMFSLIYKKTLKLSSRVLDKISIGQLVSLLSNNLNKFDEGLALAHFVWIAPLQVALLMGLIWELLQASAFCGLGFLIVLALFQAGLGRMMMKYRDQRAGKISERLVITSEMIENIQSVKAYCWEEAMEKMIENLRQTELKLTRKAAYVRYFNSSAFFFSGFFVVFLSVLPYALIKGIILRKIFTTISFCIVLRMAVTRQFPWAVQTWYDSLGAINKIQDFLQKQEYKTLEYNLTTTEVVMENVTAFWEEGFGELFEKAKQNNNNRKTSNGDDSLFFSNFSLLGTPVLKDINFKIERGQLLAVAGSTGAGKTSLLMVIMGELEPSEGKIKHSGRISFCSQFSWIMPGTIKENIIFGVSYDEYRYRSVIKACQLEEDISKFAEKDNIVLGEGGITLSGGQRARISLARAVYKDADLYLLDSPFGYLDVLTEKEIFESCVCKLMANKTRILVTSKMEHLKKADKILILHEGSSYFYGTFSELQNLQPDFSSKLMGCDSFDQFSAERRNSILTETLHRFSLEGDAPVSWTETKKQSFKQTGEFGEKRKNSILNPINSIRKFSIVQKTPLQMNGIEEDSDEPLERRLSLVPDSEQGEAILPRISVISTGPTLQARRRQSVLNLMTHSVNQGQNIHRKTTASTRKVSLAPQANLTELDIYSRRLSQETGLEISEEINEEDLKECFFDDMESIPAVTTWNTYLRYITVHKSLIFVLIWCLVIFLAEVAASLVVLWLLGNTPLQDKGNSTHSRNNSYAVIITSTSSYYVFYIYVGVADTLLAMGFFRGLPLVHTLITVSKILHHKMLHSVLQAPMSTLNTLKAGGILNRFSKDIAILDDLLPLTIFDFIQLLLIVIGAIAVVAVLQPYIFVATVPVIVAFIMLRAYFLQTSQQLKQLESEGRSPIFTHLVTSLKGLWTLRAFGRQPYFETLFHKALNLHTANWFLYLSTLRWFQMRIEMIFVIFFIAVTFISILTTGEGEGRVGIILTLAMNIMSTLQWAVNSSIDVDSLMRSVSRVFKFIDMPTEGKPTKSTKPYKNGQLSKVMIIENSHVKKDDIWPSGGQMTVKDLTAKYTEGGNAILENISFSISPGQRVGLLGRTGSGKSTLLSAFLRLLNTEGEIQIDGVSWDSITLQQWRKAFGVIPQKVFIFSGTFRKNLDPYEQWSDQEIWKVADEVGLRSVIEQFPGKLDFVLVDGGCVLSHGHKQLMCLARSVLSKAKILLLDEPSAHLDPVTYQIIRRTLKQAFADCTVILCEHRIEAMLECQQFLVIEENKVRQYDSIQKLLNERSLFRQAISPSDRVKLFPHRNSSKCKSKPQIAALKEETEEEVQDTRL
Experimental: Ussing chamber techniques with Fisher Rat Thyroid cells that are stably transfected with the indicated form of CFTR are used to record the transepithelial current (IT) resulting from CFTR-mediated chloride transport (Van Goor, et al., 2009, PNAS, 106: 18825-30). Standard conditions for Ussing chamber electrophysiological with different forms of CFTR measured forskolin (10 μM)-stimulated chloride transport that peaked at 205.5 μA/cm2 for normal CFTR.

[3] = biological target: V232D-CFTR (Homo sapiens, UniProt P13569, V232D); details: cited from earlier work
V232D-CFTR, sequence (P13569 whole entry V232D, the tested form may be a part): as the sequence (P13569 whole entry E92K) above, with K92E, V232D counted along it

[4] = biological target: T2, N-terminal CFTR fragments (Homo sapiens, UniProt P13569); assay: Steady-state accumulation of CFTR fragments, western blot, HEK293 cells; format: cell-based; details: bortezomib 10 μM
T2 construct: Indicated CFTR fragments were generated via introduction of a stop codon after the specified residue; expressed in transfected cells; host or cells: HEK293, transient, pcDNA3.1(+)-CFTR derivatives
Experimental: Steady-state levels of CFTR and its mutants are determined by western blot analysis. HEK293 cells are transiently transfected with the indicated plasmids (Grove, et al., 2011, Mol Biol Cell, 22: 301-14). The transfected cells are allowed to recover for approximately 18 hrs before addition of DMEM and then supplemented with lumacaftor or DMSO (control). The cells are incubated with the correctors for 24 hrs before isolating the cells for western blot analysis. The harvested cells are diluted with 2×SDS sample buffer (100 mM Tris-HCl (pH 6.8)/4% SDS/0.05% Bromophenol Blue/20% glycerol), sonicated, and heated at 37° C. prior to resolving the proteins on SDS-PAGE gels. The proteins are transferred to nitrocellulose membranes and the membranes are probed with the designated antibodies. Tubulin is used to indicate loading controls.
A set of CFTR fragments with domain boundaries that permitted them to accumulate in unstable or stable states are expressed in HEK293 cells, and the effect of 5 μM lumacaftor on the accumulation of different fragments is determined. As a point of reference, the impact of the proteasome inhibitor bortezomib on CFTR fragment accumulation is also measured.
Cells are treated for 4 hours with bortezomib or 18 hours at 37° C. with lumacaftor. The amount of CFTR fragment accumulation is determined by immunoblot.
To identify regions of CFTR required for lumacaftor activity, different length CFTR fragments were expressed in HEK-293 cells and their steady-state accumulation and half-life were quantified in biochemical assays (FIGS. 1A and B; FIG. 2). Since CFTR folding initiates cotranslationally and channel assembly is completed post-translationally (Higgins, 1992, Annual Review of Cell Biology, 8:67-113), CFTR fragments which may resemble folding intermediates have been used to study CFTR biogenesis. The underlying rationale is that differences in accumulation or half-life between different length CFTR fragments are believed to reflect differences in the stability of the protein conformation and resistance to endoplasmic reticulum associated degradation (ERAD). […] Differences in accumulation and halflife of CFTR fragments have been used successfully to identify Hsp70- and calnexin-dependent steps in CFTR folding and degradation pathways (Farinha and Amaral, 2005, Mol Cell Biol, 25:5242-52; Lukacs and Verkman, […], EMBO Journal, 13:6076-86; Meacham et al., 1999, EMBO Journal, 18:1492-1505; Okiyoneda et al., 2004, Mol Biol Cell, 15:563-574), to identify defective interactions between MSD1, NBD1 and MSD2 as an underlying cause of premature degradation of ΔF508-CFTR (Cui et al., 2007, J Mol Biol, 365:981-994; Du and Lukacs, 2009, Molecular Biology of the Cell, 20:1903-1915; Younger et al., 2006, Cell, 126:571-582), and to identify MSD2 as the site of action of the CFTR corrector, Corr-4a.

[5] = compared to CFTR^430 and CFTR^653

ΔF508-CFTR, sequence (P13569 with tags, fused parts or gaps DEL508-508): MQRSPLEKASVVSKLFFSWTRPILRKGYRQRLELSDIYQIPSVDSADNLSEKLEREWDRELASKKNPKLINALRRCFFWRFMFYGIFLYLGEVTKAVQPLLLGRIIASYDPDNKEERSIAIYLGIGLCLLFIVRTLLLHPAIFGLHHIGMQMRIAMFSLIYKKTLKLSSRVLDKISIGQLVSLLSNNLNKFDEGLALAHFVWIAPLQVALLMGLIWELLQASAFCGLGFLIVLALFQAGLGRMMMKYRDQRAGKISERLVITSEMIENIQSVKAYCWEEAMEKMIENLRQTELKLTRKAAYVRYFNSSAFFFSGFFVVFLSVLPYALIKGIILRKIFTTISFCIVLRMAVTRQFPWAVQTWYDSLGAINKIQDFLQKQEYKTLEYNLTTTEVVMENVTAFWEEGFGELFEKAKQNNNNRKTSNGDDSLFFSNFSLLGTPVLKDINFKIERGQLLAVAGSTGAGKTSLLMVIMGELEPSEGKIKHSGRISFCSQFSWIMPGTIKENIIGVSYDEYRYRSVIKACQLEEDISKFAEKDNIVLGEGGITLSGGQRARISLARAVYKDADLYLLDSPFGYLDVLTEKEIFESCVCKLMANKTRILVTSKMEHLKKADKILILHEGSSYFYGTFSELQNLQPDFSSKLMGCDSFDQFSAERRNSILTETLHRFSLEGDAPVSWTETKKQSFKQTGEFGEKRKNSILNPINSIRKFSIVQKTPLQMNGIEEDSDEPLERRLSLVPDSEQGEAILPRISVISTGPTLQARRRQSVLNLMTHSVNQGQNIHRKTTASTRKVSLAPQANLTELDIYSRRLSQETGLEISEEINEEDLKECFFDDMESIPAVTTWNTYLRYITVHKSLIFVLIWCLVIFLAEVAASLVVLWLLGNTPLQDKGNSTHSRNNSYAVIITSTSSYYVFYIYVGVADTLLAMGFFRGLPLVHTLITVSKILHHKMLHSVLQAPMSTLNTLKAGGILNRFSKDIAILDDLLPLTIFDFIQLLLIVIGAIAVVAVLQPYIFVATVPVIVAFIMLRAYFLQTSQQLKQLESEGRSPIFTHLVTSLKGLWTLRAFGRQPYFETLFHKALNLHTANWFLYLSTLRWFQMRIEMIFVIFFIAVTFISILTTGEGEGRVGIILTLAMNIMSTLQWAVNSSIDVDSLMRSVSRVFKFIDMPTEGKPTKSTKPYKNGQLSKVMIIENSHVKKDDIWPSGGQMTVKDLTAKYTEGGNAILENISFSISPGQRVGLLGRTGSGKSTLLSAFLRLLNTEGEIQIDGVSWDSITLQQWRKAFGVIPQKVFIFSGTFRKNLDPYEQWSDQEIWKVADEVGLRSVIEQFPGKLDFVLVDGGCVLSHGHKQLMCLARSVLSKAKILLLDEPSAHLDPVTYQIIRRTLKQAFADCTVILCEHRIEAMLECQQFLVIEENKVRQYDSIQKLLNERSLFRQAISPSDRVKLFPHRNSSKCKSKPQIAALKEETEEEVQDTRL

Structure (SMILES) | ΔF508-CFTR function [1] | restoration of E92K-CFTR function [2] | V232D-CFTR biogenesis and function [3] | increase in accumulation of CFTR^370 ([4]; 4 hours) [fold] | increase in accumulation of CFTR^530 ([4]; 4 hours) [fold] | sensitivity of CFTR^430 accumulation to proteasome inhibition ([4]; 4 hours) | sensitivity of CFTR^653 accumulation to proteasome inhibition ([4]; 4 hours) | effect of proteasome inhibition on CFTR^370 [4, 5] | effect of proteasome inhibition on CFTR^530 [4, 5]
COc1ccc(Cl)cc1Nc1nc(-c2sc(NC(=O)c3ccccc3)nc2C)cs1 [Corr-4a] | partially restored | could not restore | to normal levels | – | – | – | – | – | –
CC(C)C[C@H](NC(=O)[C@H](Cc1ccccc1)NC(=O)c1cnccn1)B(O)O [bortezomib] | – | – | – | 10 | 10 | relatively insensitive | relatively insensitive | more susceptible; also recorded: able to increase the stability | more susceptible

Reference: patent publication US20160074374A1, “CORRECTORS ACTING THROUGH MSD1 OF CFTR PROTEIN” (VERTEX PHARMACEUTICALS INCORPORATED, priority 2013, published 2016)
